Data set [1] is described as follows: solubility in aqueous media / water. The class given is physicochemical. Conditions: even in the presence of surfactants.
For data set [2] the following is noted: in vivo.

As usually defined, the solubility is how much of the substance goes into solution per volume.

In the case of `COc1cc(N2CCN(C3CCN(c4ccc(F)c5cccnc45)CC3)CC2)c2ncccc2c1.O=C(O)CCC(=O)O.O=C(O)CCC(=O)O.O=C(O)CCC(=O)O` [Form A, 6-methoxy-8-[4-(1-(5-fluoro)-quinolin-8-yl-piperidin-4-yl)-piperazin-1-yl]-quinoline trisuccinate], the hygroscopicity entry (believed) is on record as “substantially non-hygroscopic”. The “conversion of crystalline form in water” value (upon dispersion in water for a few minutes in ambient conditions) was “convert to Form D”. For `COc1cc(N2CCN(C3CCN(c4ccc(F)c5cccnc45)CC3)CC2)c2ncccc2c1.O=C(O)CCC(=O)O.O=C(O)CCC(=O)O.O=C(O)CCC(=O)O` [Form B, 6-methoxy-8-[4-(1-(5-fluoro)-quinolin-8-yl-piperidin-4-yl)-piperazin-1-yl]-quinoline trisuccinate], for the setting “slurried for two hours in a mixture of THF and heptane in an ice/water bath”, the “conversion of crystalline form in THF/heptane slurry” value was “convert to Form A”. As to `COc1cc(N2CCN(C3CCN(c4ccc(F)c5cccnc45)CC3)CC2)c2ncccc2c1` [free base, 6-methoxy-8-[4-(1-(5-fluoro)-quinolin-8-yl-piperidin-4-yl)-piperazin-1-yl]-quinoline], the solubility in data set [1] was around 0.4 µg/mL. For the compound `COc1cc(N2CCN(C3CCN(c4ccc(F)c5cccnc45)CC3)CC2)c2ncccc2c1.O=C(O)CCC(=O)O.O=C(O)CCC(=O)O.O=C(O)CCC(=O)O` [trisuccinate salt, 6-methoxy-8-[4-(1-(5-fluoro)-quinolin-8-yl-piperidin-4-yl)-piperazin-1-yl]-quinoline trisuccinate], in data set [2], the bioavailability entry is “improved bioavailability over the free base”.
